The text below walks through data of publication PMC4854315, “Discovery of a novel allosteric inhibitor-binding site in ERK5: comparison with the canonical kinase hinge ATP-binding site” (Acta Crystallographica. Section D, Structural Biology, 2016).

What all share (experiment): Z'-LYTE kinase panel
Type in all cases: biochemical

In one assay the target is T1, ALK (Homo sapiens, UniProt Q9UM73).
T1 construct: purchased ThermoFisher (SelectScreen, Z'-LYTE)
The essentials:
(§1)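 Single-point screen, 10 µM compound; % inhibition read by Z′-LYTE (FRET-based) format per standard protocol; 225-kinase panel.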

The target in another assay is T2, EPHA8 (Homo sapiens, UniProt P29322).
T2 construct: purchased ThermoFisher (SelectScreen, Z'-LYTE)
T2 sequence (P29322 28-1005): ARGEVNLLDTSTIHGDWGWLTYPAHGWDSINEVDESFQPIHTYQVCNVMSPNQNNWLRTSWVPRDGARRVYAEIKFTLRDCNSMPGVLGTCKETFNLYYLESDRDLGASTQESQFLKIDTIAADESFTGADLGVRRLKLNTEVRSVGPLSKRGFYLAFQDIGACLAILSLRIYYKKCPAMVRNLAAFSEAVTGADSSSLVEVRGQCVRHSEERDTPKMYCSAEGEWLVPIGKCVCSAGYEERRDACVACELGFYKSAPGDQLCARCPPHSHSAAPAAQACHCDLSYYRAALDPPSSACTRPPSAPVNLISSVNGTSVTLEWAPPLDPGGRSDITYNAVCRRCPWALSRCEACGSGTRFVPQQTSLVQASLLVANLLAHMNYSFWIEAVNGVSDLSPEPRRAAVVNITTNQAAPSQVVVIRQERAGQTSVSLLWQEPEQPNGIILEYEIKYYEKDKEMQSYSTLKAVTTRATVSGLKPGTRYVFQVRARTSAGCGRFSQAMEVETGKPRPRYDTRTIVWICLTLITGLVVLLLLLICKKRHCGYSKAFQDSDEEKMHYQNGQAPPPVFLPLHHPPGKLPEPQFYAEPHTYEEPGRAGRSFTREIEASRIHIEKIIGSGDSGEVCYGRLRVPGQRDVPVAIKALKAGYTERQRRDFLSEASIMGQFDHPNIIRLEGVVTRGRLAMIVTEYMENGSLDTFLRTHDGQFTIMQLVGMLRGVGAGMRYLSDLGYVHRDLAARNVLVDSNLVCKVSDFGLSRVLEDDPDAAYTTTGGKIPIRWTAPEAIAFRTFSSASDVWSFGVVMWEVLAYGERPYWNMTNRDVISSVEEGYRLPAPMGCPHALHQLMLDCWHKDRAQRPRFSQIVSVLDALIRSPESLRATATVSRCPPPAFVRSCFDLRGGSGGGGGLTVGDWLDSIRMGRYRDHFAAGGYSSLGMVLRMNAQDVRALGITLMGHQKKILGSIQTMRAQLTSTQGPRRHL
The essentials:
as §1

The target of a further assay is T3, MAPKAPK5 (PRAK) (Homo sapiens, UniProt Q8IW41).
T3 construct: purchased ThermoFisher (SelectScreen, Z'-LYTE)
T3 sequence (Q8IW41 1-473): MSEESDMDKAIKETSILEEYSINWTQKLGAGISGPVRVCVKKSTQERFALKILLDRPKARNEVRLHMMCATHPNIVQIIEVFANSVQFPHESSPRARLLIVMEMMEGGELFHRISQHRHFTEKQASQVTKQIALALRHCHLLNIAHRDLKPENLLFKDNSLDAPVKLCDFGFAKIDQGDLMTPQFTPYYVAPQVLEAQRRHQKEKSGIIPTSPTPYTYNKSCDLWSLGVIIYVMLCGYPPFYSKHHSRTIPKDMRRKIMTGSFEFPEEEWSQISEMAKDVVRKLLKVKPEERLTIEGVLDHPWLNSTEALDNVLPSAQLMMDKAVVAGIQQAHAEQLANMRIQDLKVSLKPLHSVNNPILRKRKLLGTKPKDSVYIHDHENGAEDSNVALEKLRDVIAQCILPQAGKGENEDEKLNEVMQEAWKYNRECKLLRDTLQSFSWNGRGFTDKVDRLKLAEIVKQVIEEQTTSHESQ
The gist of the method:
as §1

Another assay addresses T4, JAK2 JH1 JH2 (Homo sapiens, UniProt O60674).
T4 construct: JAK2 JH1 JH2; purchased ThermoFisher (SelectScreen, Z'-LYTE)
The gist of the method:
as §1

The target of a further assay is T5, ROCK2 (Homo sapiens, UniProt O75116).
T5 construct: purchased ThermoFisher (SelectScreen, Z'-LYTE)
The essentials: as §1

In the next assay the target is T6, GRK4 (Homo sapiens, UniProt P32298).
T6 construct: purchased ThermoFisher (SelectScreen, Z'-LYTE)
The gist of the method: as §1

A further assay concerns the target T7, MAP4K2 (GCK) (Homo sapiens, UniProt Q12851).
T7 construct: purchased ThermoFisher (SelectScreen, Z'-LYTE)
T7 sequence (Q12851 1-820): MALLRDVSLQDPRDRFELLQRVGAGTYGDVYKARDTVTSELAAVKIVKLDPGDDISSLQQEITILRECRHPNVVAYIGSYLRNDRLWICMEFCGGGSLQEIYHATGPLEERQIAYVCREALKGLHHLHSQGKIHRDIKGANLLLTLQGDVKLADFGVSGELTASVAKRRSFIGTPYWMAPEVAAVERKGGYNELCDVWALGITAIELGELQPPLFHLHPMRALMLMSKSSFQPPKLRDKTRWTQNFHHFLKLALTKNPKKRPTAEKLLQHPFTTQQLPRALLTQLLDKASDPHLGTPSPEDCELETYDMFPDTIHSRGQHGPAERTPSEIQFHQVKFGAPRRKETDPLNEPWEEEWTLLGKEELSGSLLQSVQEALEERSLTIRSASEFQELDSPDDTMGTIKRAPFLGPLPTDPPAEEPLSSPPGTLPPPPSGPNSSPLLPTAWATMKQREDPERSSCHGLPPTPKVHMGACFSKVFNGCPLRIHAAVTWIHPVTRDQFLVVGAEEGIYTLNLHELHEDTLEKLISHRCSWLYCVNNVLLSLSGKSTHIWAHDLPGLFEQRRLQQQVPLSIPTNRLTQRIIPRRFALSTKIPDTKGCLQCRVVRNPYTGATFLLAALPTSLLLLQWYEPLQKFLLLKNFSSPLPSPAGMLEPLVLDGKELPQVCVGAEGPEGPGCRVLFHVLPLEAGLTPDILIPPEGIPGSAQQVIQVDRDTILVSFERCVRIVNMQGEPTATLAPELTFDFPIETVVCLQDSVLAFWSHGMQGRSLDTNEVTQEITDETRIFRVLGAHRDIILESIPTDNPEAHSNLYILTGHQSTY
The gist of the method:
as §1

T1 sequence (Q9UM73 19-1620): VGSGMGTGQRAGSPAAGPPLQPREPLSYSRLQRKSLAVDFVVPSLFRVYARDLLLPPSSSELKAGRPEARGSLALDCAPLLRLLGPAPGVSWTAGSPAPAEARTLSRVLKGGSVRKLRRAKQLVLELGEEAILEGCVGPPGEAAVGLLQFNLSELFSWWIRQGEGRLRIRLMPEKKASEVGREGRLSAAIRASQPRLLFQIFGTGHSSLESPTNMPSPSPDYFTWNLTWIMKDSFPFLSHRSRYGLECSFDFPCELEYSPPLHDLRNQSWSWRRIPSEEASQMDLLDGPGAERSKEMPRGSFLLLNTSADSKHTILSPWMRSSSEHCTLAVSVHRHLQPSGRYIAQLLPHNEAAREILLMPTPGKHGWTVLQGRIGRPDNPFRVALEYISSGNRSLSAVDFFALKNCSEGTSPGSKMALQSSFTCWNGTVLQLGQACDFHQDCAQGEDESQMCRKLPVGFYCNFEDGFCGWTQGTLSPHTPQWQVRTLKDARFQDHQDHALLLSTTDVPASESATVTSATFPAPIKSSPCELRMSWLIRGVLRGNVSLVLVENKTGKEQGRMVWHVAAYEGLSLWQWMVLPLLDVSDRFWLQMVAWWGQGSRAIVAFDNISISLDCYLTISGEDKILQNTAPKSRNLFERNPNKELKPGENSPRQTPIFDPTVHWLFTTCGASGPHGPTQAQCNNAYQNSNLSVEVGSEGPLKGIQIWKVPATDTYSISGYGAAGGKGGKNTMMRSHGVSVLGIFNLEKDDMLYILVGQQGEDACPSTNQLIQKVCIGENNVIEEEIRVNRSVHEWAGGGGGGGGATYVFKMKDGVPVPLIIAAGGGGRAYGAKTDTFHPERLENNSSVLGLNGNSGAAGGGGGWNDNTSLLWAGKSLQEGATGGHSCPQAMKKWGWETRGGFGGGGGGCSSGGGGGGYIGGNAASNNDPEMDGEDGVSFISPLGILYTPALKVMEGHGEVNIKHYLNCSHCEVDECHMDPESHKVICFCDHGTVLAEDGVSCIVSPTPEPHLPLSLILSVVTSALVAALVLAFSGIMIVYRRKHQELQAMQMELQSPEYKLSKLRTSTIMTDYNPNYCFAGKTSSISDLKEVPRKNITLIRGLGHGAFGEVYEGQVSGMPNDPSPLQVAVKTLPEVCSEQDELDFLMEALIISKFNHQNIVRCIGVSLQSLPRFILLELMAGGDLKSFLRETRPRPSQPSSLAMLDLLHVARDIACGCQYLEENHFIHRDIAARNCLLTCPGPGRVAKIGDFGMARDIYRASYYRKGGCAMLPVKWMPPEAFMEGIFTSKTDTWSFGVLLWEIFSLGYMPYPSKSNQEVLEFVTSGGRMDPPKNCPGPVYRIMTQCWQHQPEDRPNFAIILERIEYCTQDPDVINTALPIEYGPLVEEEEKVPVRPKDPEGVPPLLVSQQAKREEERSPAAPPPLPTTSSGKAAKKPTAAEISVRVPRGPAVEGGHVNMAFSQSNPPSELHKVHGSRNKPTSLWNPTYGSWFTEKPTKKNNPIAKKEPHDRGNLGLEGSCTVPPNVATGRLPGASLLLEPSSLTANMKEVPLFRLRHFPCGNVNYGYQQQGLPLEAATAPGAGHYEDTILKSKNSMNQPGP
T6 sequence (P32298 whole entry): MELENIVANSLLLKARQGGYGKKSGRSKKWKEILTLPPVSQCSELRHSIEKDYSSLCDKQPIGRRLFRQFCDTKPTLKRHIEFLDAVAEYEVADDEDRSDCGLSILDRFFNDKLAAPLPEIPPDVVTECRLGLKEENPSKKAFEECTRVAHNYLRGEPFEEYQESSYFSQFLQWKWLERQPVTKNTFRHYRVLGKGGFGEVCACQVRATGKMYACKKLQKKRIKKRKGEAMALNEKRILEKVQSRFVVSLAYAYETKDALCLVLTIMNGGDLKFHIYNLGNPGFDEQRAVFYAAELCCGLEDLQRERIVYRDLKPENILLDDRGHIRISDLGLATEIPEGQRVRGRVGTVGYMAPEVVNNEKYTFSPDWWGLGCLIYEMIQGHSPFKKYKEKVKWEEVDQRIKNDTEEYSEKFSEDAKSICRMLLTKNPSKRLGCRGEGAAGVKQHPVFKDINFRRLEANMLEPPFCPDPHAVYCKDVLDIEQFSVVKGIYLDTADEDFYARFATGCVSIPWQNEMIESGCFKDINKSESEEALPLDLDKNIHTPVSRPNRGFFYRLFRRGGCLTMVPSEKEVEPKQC
T5 sequence (O75116 whole entry): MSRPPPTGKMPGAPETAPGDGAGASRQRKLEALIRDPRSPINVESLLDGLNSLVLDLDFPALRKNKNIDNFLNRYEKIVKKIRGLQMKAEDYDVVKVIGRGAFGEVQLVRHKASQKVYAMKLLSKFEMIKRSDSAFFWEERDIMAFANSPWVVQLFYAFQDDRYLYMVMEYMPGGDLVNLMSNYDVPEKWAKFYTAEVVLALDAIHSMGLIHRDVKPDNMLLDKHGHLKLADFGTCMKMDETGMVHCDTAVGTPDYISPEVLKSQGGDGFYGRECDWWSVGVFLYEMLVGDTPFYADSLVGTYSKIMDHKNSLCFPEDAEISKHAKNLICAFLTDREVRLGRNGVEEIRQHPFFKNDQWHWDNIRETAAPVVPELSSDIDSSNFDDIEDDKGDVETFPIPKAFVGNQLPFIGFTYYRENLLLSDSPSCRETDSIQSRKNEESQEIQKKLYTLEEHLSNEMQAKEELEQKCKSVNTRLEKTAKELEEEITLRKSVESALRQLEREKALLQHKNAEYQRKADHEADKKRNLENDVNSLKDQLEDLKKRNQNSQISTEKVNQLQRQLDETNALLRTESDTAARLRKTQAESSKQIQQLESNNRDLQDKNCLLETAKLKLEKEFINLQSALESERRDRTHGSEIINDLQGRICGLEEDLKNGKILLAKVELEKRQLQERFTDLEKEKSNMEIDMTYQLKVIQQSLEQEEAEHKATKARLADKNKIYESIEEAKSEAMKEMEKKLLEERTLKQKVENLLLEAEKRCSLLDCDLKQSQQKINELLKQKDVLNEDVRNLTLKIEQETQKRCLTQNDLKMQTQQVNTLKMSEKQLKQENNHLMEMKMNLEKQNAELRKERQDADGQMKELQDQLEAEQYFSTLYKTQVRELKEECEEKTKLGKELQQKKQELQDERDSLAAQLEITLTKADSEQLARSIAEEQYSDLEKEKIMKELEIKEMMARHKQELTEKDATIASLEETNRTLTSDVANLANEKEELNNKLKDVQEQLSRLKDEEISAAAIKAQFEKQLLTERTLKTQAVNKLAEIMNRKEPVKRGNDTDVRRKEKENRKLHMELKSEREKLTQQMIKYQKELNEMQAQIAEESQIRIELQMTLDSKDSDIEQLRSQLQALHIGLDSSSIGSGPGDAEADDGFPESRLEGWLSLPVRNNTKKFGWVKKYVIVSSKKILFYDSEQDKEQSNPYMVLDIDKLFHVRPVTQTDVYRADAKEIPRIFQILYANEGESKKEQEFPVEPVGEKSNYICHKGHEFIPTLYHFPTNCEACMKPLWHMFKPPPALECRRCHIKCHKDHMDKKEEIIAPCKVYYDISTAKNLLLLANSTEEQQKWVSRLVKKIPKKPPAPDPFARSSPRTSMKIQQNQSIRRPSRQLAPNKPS
T4 sequence (O60674 532-1132 limits assumed): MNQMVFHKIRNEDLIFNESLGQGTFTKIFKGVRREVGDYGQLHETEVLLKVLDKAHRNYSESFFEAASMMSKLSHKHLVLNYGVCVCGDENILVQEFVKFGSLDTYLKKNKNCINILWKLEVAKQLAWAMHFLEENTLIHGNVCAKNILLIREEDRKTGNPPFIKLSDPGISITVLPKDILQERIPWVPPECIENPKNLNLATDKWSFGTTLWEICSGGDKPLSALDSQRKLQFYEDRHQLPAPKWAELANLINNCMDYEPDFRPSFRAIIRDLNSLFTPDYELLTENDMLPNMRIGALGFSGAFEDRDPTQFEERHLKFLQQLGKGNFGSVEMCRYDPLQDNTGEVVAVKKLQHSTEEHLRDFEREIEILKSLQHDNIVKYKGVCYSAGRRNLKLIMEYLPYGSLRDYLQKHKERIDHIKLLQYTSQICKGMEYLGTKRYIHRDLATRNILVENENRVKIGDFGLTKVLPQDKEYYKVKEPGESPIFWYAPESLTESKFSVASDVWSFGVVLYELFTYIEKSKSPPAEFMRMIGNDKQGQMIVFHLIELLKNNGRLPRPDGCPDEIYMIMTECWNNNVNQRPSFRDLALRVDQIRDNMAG

By inhibition is commonly meant the change of the read-out against control, counted positive when it falls. For `Cc1ncc(-c2nc(Nc3ccc(C(=O)NCCN4CCCCC4)cc3)ncc2F)n1C(C)C` [Compound 3], the inhibition at 10 µM was 78% at ALK; 50% against EPHA8; 45% on MAPKAPK5 (PRAK); 76% against JAK2 JH1 JH2; 40% against ROCK2; 41% against GRK4. For the same compound, the inhibition at 10 µM against MAP4K2 (GCK) was 77%.
On to `Cc1cc(Nc2nc(N)nn2C(=O)NC(C)C)ccc1Cl` [Compound 5], for which the inhibition at 10 µM on ALK is 20%; on EPHA8, 0.0057%; against MAPKAPK5 (PRAK), -3.49%; on JAK2 JH1 JH2 it was 25%; at ROCK2 it was 37%; against GRK4, 7%. The inhibition at 10 µM at MAP4K2 (GCK) came out at 50%.
“XMD8-92 [Compound 2, reference compound]”: the “ALK % Inhibition” value at ALK (10 µM compound, ATP Km app) was 16%. For the same compound, the “EPHA8 % Inhibition” value on EPHA8 (10 µM compound, ATP Km app) turned out to be 23%. The “MAPKAPK5 (PRAK) % Inhibition” value on MAPKAPK5 (PRAK) (10 µM compound, ATP Km app) was 11%. Moreover, on JAK2 JH1 JH2 (10 µM compound, ATP Km app), the “JAK2 JH1 JH2 % Inhibition” value was determined as 52%. At ROCK2 (10 µM compound, ATP Km app), the “ROCK2 % Inhibition” value is given as 93%. For the same compound, at GRK4 (10 µM compound, ATP Km app), the “GRK4 % Inhibition” value is listed as 93%. In addition, the “MAP4K2 (GCK) % Inhibition” value on MAP4K2 (GCK) (10 µM compound, ATP Km app) amounted to 46%.
